Patent US11045480B2, “Anti-huLRRC15 antibody drug conjugates and methods for their use” (AbbVie Inc., priority 2015, dated 2021)

Columns and labels:
[1] = system: EBC-1 (human squamous NSCLC) xenograft; assay: EBC-1 xenograft tumor growth; type: in vivo, mouse; settings: EBC-1, SCID/Beige mice; huM25-vcMMAE-E2 at 3 mg/kg (method: biologics 6 mg/kg IP Q7D×2); method: gemcitabine 100 mg/kg IP Q3D×3, result sentence names docetaxel (FIG. 21B)
[2] = system: MC-38 mouse colorectal cancer; assay: MC-38 syngeneic tumor growth; type: in vivo
Procedure: MC-38 mouse colorectal cancer cells (250,000) were implanted subcutaneously into C57BL/6 mice, and mice were randomized when the tumors reached ˜100 mm^3 and dosed with isotype antibodies or ADCs at 12 mg/kg intraperitoneally on a Q4D×6 (one dose given every 4 days for a total of 6 doses), while the anti-PD-1 antibody (“Anti-PD1 mAb”) was dosed intraperitoneally at 2 mg/kg Q4D×6 (one dose given every 4 days for a total of 6 doses).

EBC-1 tumors = assay: Ex vivo analysis (flow cytometry, microscopy, IHC) of treated EBC-1 tumors; type: in vivo, mouse
Procedure: For the experiments, 5 million EBC-1 cells grown in vitro were implanted per mouse into the right flank of SCID-beige mice. Tumors were size-matched at ˜300 mm^3 and treated on day 0 and day 4 with 6 mg/kg intraperitoneally for each biologic drug shown in FIG. 15A. Tumors were harvested from the mice in each group 11 days post randomization and start of treatment. Tumors were dissociated into single cell suspensions using Miltenyi Biotec gentleMACS Dissociator according to the manufacturer's guidelines for the dissociation of tough tumors. Dissociated tumor cells were passed through a 70 μm filter, counted, and immediately used for flow cytometry. Single-cell suspensions were resuspended in PBS with 10% FBS and 10 μg/mL FcR block (anti-mouse CD16/CD32, clone 93, eBioscience, Cat. #16-0161.) The following directly conjugated antibodies were used for flow cytometry: human IgG1 κ isotype control (AB095) AF647, anti-huLRRC15 (hu208.4.1a.1a) AF647, anti-FAP (huFAP MAB5) AF647, mouse anti-human CD326 (EPCAM) PE (clone 1B7, eBioscience, Cat. #12-9326), anti-mouse CD11b PE (clone M1/70, eBioscience, Cat. #12-0112), anti mouse CD11c PE (clone N418, eBioscience, Cat. #12-0114), and anti-mouse F4/80 PE (clone BM9, eBioscience, Cat. #12-4801). Ex vivo EBC1 tumor cell suspensions were incubated with fluor-conjugated antibodies for 20 minutes on ice and washed twice using PBS with 1% FBS. Flow cytometry data were collected using a Becton Dickinson FacsCalibur, and data were analyzed using FlowJo™ analysis software (TreeStar). The ex vivo flow cytometry data (FIGS. 15B-15E) are shown as a percentage of cells gated positive for each antigen relative to total live cells gated via FSC/SCC. It should be noted that percentages reported are relative values to the total ex vivo EBC1 tumor and that a reduction in one cell population (e.g., EPCAM positive cancer cells) would result in an inverse increase in remaining cell populations when this analysis method is used.
Dissociated single-cell suspensions of the ex vivo EBC1 tumors shown in FIG. 15A were seeded at 120,000 live cells into tissue culture microscopy chamber slides. Cells were allowed to sit and incubate for 48 hours, and then fixed in 2% paraformaldehyde for 15 min at 37° C. The cells were washed with PBS and permeabilized using 0.3% Triton-X in PBS at 37° C. for 30 min. Cells were washed with PBS and blocked in 5% BSA for 30 min at 37° C. Cells were incubated with anti-α-SMA (clone 1A4 DAKO, Cat. #36962) and then detected with AlexaFluor AF594 (Life Technologies, Cat. #A21203) secondary antibody (2 μg/mL) for 30 min at 37° C. Subsequently, cells were stained using anti-human EpCAM-AF488 (Cell Signaling Technology, Cat. #5198) and washed 3× in PBS. Finally the slides were removed from the chambers and mounted with a coverslip using ProLong Diamond Anti-Fade with DAPI (Life Technologies, Cat. #36962). Image acquisition was performed using Zeiss Axiovision Software on a Zeiss Axiovert 200M inverted fluorescent microscope. Statistical differences between groups were determined using unpaired T tests in GraphPad Prism™. […] The percentage of pHH3 positive cells decreased with additional dosing and longer time (FIG. 15H) correlating with cancer cell death and tumor shrinkage (FIG. 15A).

[3] = system: NW231 breast cancer xenograft; assay: NW231 xenograft tumor growth; type: in vivo, mouse; settings: NW231, SCID mice; biologics 12 mg/kg IP Q4D×6; doxorubicin 1 mg/kg IV days 0, 4, 8, 13, 18 (FIG. 20D)
Procedure: In FIG. 20D, NW231 breast cancer cells (10 million) were implanted subcutaneously into SCID mice, and mice were randomized when the tumors reached ˜150 mm^3 and dosed with biologics at 12 mg/kg intraperitoneally on a Q4D×6 (one dose given every 4 days for a total of 6 doses), while doxorubicin was dosed intravenously at 1 mg/kg on days 0, 4, 8, 13 and 18.

[4] = system: HN5 (head and neck) xenograft; assay: HN5 xenograft tumor growth; type: in vivo, mouse; settings: HN5, NSG mice; ADC 4.5 mg/kg IP Q4D×6; erlotinib 150 mg/kg orally daily ×10; cetuximab 3 mg/kg IP Q7D×3 (FIG. 20B)
[5] = system: PANC1 (pancreatic) xenograft; assay: PANC1 xenograft tumor growth; type: in vivo, mouse
Procedure: In FIG. 20E, PANC1 pancreatic cancer cells (10 million) were implanted subcutaneously into SCID mice, and mice were randomized when the tumors reached ˜125 mm^3 and dosed with biologics at 12 mg/kg intraperitoneally on a Q4D×6 (one dose given every 4 days for a total of 6 doses), while gemcitabine was dosed intraperitoneally at 100 mg/kg Q3D×4) (one dose given every three days for 4 doses total).

[6] = system: SCC-15 head and neck cancer xenograft; assay: SCC-15 xenograft tumor growth; type: in vivo, mouse
[7] = EBC-1 tumors, 6 mg/kg IP day 0 and 4, harvested day 11 (FIG. 15F)
[8] = SCC-15, SCID mice, ADCs 12 mg/kg IP Q7D×6, cetuximab 3 mg/kg IP Q7D×3 (FIG. 22B)
[9] = SCC-15, ADC 12 mg/kg IP Q7D×6 plus cetuximab 3 mg/kg IP Q7D×3 (FIG. 22B)

Substance: huM25-vcMMAE-E2: huM25 conjugated with maleimidocaproyl val-cit PABA MMAE, preparation enriched in DAR2 by HIC
- TGImax, single agent [1]: 91%
- single agent activity ([2]; MC-38, C57BL/6 mice, ADC 12 mg/kg IP Q4D×6 (FIG. 22C)): did not show single agent activity
- TGImax, administered adjunctively with anti-PD-1 antibody ([2]; MC-38, ADC 12 mg/kg IP Q4D×6 plus anti-PD-1 antibody 2 mg/kg IP Q4D×6 (FIG. 22C)): 87%
- cancer cells in ex vivo tumor (microscopy count) (EBC-1 tumors; [7]): significant decrease
- fibroblast population in ex vivo tumor (EBC-1 tumors; [7]): continued to persist
- phosphohistone H3 (pHH3) staining, mitotic figures (EBC-1 tumors; EBC-1 tumors, 6 mg/kg, after 72 hours (FIG. 15G)): higher number of mitotic figures
- staining for CD45 and F4/80 (EBC-1 tumors; EBC-1 tumors, day 11 post-treatment, 6 mg/kg, compared with isotype ADC (FIG. 15I)): enhanced staining
- immune infiltrate (CD11c or F4/80 positive cells) (EBC-1 tumors; ex vivo flow cytometry of EBC-1 tumors post treatment (FIGS. 15D-15E)): increase in immune infiltrate
- TGImax [3]: 89%
- TGD [4]: 194%
- TGImax [4]: 96%
- TGImax ([5]; PANC1 (3+ huLRRC15 stromal positive, cancer negative) tumor model (FIG. 17B)): 94.4%
- TGImax ([5]; PANC1, SCID mice, biologics 12 mg/kg IP Q4D×6, gemcitabine 100 mg/kg IP Q3D×4 (FIG. 20E)): 94%
- TGD, single agent [6, 8]: 44%
- TGImax, single agent [6, 8]: 58%
- TGD, used adjunctively with cetuximab [6, 9]: 125%
- TGImax, used adjunctively with cetuximab [6, 9]: 87%
